Laboratory results published in PubChem BioAssay (NCI).
Where “and” joins values, the source holds several entries; their conditions need not be identical. Equal values may be shown once.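 The compound was tested at five concentrations on cells cultured in 96-well plates, with a 48-hour exposure period. GI50: concentration for 50% inhibition of growth. At the TGI there is no net growth.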

Key:
Test in all cases: growth of human tumour cells (NCI), 48 h
SF-539 CNS = system: SF-539 CNS
K-562 leukemia = system: K-562 leukemia
IGROV1 ovarian = system: IGROV1 ovarian
A498 renal = system: A498 renal
RPMI-8226 leukemia = system: RPMI-8226 leukemia
T-47D breast = system: T-47D breast
SW-620 colon = system: SW-620 colon
786-0 renal = system: 786-0 renal
RXF 393 renal = system: RXF 393 renal
UACC-257 melanoma = system: UACC-257 melanoma

Structure (SMILES) | TGI (SF-539 CNS) | GI50 (K-562 leukemia) | TGI (K-562 leukemia) [µM] | TGI (IGROV1 ovarian) | TGI (A498 renal) | GI50 (RPMI-8226 leukemia) | TGI (RPMI-8226 leukemia) | TGI (T-47D breast) | TGI (SW-620 colon) [µM] | TGI (786-0 renal) | TGI (RXF 393 renal) | GI50 (SF-539 CNS) [µM] | GI50 (IGROV1 ovarian) [µM] | GI50 (A498 renal) [µM] | GI50 (T-47D breast) [µM] | GI50 (SW-620 colon) [µM] | GI50 (786-0 renal) [µM] | GI50 (UACC-257 melanoma) [µM] | TGI (UACC-257 melanoma) [µM] | GI50 (RXF 393 renal) [µM]
Cc1nc2c(-c3cnc(N)nc3)nc(N3CCOCC3)nc2n1C(C)C | 1.17 µM and 0.481 µM | 1 µM and 0.661 µM | > 100 | 0.262 µM and 0.286 µM | 0.156 µM and 0.0587 µM | 0.179 µM and 0.123 µM | > 3 µM and 10.9 µM | 0.251 µM and 0.102 µM | > 100 | 1.32 µM and 0.902 µM | 0.611 µM and 0.315 µM | – | – | – | – | – | – | – | – | –
CCN1CCN(C(c2ccc(C(F)(F)F)cc2)c2ccc3cccnc3c2O)CC1 (stereo unspecified) | 10.1 µM | 3.49 µM | 14.6 | 12.4 µM | 14.1 µM | 0.798 µM | 16.7 µM | 15.2 µM | 19.9 | 7.5 µM | 16 µM | 1.68 | 2.04 | 2.31 | 4.19 | 4.42 | 2.34 | 2.06 | 6.69 | 3.2
CC(C)=CC/C=C(/C)[C@H]1CC[C@]2(C)[C@@H]1CC[C@@H]1[C@@]3(C)CCCNC(C)(C)[C@@H]3CC[C@]12C | 9.13 µM | 1.79 µM | 5.3 | 3.72 µM | 29.3 µM | 2.12 µM | 4.97 µM | 5.03 µM | 3.68 | 6.29 µM | 3.31 µM | 2.85 | 1.87 | 13.8 | 2.09 | 1.82 | 2.38 | 3.05 | 11 | 1.72
COc1ccc(CN2C(=O)/C(=C\C(=O)c3ccc(OCCN4CCCCC4)cc3)c3ccccc32)cc1 | 3.67 µM | 2.31 µM | 10.4 | 4.48 µM | 27 µM | 2.31 µM | 5.62 µM | 3.29 µM | 3.51 | 3.11 µM | 3.22 µM | 1.9 | 2.08 | 13.5 | 1.64 | 1.74 | 1.66 | 16.8 | 30.8 | 1.69
Cc1ccc(C)c(C2=C(c3cn(C)c4ccccc34)C(=O)NC2=O)c1 | > 25 µM | 15.1 µM | > 25 | > 25 µM | > 22.8 µM | > 22 µM | > 25 µM | > 25 µM | > 25 | > 25 µM | > 25 µM | > 16.4 | 24.8 | > 12.1 | 14 | 13 | > 25 | > 25 | > 25 | 5.93
Cc1cc(I)cc(CN(C)CCCN2CCCCCCC2)c1O | 29.2 µM | 2.46 µM | 23.8 | 32 µM | 32.9 µM | 7.9 µM | 24.2 µM | 52.8 µM | 30.8 | 26.3 µM | 35.1 µM | 15.1 | 15.4 | 17.2 | 19.6 | 16.2 | 12.7 | 16.2 | 34.3 | 14.3
